The assay concerns the target T1, human CCR-3 (Homo sapiens, UniProt P51677).
T1 construct: expressed in transfected cells; host or cells: rat basophil leukaemia (RBL-2H3) cells, membrane preparation
T1 sequence (P51677 1-355): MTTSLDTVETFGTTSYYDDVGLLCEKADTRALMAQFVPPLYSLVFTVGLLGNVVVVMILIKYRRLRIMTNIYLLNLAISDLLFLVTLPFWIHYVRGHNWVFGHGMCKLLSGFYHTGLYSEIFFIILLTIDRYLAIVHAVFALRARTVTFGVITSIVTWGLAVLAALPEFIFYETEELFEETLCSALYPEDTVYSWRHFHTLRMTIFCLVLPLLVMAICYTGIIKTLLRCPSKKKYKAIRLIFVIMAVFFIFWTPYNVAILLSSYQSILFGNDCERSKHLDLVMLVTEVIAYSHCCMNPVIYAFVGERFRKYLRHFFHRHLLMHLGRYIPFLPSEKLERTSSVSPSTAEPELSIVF
The assay can be described thus: [125I]-human eotaxin binding to CCR-3, SPA assay. Particulars: inhibition of [125I]-human eotaxin binding; membranes of RBL-2H3 cells stably expressing CCR3; 4 hours at room temperature. The source says: Recombinant cells expressing human CCR-3 are captured by wheatgerm agglutinin (WGA) polyvinyltoluidene (PVT) SPA beads (available from Amersham), through a specific interaction between the WGA and carbohydrate residues of glycoproteins on the surface of the cells. [^125I]-human eotaxin (available from Amersham) binds specifically to CCR-3 receptors bringing the [^125I]-human eotaxin in close proximity to the SPA beads. Emitted â-particles from the [^125I]-human eotaxin excite, by its proximity, the fluorophore in the beads and produce light.
Preparation of Assay Buffer: 5.96 g HEPES and 7.0 g sodium chloride are dissolved in distilled water and 1 M aqueous CaCl2 (1 ml) and 1M aqueous MgCl2 (5 ml) are added. The pH is adjusted to 7.6 with NaOH and the solution made to a final volume of 1 l using distilled water. 5 g bovine serum albumin and 0.1 g sodium azide are then dissolved in the solution and the resulting buffer stored at 4° C. […]
Preparation of membranes: Confluent rat basophil leukaemia (RBL-2H3) cells stably expressing CCR3 are removed from tissue culture flasks using enzyme-free cell dissociation buffer and resuspended in phosphate-buffered saline. […] The resulting scintillations are counted using a Canberra Packard TopCount, each well being counted for 1 minute. […]

Each structure is given as a SMILES string. pIC50: −log10 of the molar value.

In patent US7754758B2, “Pyrrolidine derivatives acting as CCR3-receptor antagonists” (Novartis AG, priority 2004, dated 2010) one finds IC50 data, which are given here for 2 compounds.

In the case of `O=C(NCCCN1CCC(Oc2ccc(F)cc2)C1)Nc1ccc(F)c(F)c1` (centres unmarked) [Example 3], the negative-log IC50 (pIC50) was 6.35.

The compound `COc1cccc(NC(=O)NCCCN2CCC(Oc3ccc(F)cc3)C2)c1` (centres unmarked) [Example 2, 1-{3-[3-(4-fluorophenoxy)pyrrolidine-1-yl]propyl}-3-(3-methoxyphenyl)-urea] had a pIC50 of 6.57.
